# Data: PMC3763546, “Structural insight into negative DNA supercoiling by DNA gyrase, a bacterial type 2A DNA topoisomerase” (Nucleic Acids Research, 2013)
# Molecular target: T1, GyrBA-fus (full-length T. thermophilus DNA gyrase GyrB-GyrA fusion) (Thermus thermophilus, UniProt Q5SHZ4+Q5SIL4)
# T1 construct: full-length GyrB fused at its C-terminus to the N-terminus of full-length GyrA by a G-D-L linker; N-terminal His10 tag with PreScission site; E. coli BL21(DE3); dimer (A2B2 equivalent) of 320377 Da
# Experiment: native ESI mass spectrometry
# Assay type: binding
# Conditions: 200 mM ammonium acetate pH 7.5; two ADPNP per fusion dimer; ATPase domain (GyrB) site; also in the holoenzyme cryo-EM sample (16.9 Å)
smiles,measurement,value
Nc1ncnc2c1ncn2[C@@H]1O[C@H](COP(=O)(O)OP(=O)(O)NP(=O)(O)O)[C@@H](O)[C@H]1O [ADPNP],native ESI mass spectrometry,showing the addition of two ADPNP molecules per GyrBA-fus dimer
